pIC50: −log10 of the molar value. Structures can show the parent of a compound that is named as a salt.

This test deals with T1, Nav1.7 (or SCN9A) channel (Homo sapiens, UniProt Q15858).
T1 construct: expressed in transfected cells
T1 sequence (Q15858 whole entry): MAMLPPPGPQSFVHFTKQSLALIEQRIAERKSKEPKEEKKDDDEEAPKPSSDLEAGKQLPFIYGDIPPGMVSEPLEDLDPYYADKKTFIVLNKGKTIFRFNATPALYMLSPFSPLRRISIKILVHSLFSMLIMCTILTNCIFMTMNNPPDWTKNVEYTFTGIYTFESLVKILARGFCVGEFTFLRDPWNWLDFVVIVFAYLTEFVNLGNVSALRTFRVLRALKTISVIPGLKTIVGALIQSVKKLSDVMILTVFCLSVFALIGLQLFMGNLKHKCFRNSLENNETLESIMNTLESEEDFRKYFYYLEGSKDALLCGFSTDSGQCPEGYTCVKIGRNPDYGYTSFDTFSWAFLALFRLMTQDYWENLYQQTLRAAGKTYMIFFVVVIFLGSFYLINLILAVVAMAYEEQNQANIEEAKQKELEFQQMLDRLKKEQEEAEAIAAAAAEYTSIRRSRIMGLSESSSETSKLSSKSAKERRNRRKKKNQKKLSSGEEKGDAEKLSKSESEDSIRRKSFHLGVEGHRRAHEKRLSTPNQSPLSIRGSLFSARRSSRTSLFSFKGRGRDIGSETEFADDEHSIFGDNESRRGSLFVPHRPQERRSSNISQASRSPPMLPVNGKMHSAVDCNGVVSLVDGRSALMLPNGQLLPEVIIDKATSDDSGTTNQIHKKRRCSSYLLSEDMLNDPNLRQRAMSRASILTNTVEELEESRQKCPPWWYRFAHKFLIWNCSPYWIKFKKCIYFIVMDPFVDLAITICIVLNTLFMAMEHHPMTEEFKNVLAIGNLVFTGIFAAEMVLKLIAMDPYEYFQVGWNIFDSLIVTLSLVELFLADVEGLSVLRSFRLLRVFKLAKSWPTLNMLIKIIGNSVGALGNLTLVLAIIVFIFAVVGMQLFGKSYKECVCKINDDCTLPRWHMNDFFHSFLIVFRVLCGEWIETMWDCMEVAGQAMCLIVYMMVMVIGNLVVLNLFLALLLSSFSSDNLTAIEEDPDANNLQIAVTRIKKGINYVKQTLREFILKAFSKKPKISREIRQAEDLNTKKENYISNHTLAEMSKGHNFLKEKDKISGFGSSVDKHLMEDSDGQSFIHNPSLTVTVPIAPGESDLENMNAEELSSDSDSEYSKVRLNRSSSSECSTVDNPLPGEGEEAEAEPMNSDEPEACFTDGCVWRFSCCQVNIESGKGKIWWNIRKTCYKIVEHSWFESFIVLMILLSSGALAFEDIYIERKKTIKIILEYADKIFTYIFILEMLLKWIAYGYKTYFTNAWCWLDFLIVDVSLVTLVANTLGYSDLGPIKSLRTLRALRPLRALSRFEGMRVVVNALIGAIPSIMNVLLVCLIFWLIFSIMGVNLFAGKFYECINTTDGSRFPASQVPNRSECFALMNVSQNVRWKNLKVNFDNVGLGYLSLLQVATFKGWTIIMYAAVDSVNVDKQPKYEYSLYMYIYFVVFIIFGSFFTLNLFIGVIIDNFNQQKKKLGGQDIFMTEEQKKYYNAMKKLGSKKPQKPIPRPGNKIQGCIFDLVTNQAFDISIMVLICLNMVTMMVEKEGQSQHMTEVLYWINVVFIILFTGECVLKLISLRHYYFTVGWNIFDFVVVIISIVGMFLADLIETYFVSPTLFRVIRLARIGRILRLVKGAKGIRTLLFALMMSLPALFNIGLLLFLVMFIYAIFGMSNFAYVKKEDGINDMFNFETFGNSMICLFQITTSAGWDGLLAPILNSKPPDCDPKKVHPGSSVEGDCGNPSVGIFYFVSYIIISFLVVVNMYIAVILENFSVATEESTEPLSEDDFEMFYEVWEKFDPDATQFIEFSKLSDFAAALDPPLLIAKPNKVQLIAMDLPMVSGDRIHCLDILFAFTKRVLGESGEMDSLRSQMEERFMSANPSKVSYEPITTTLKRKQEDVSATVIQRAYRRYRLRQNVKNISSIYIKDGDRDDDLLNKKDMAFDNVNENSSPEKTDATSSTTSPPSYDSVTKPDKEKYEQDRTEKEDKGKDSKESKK
The test can be described thus: Nav1.7 (hSCN9A) electrophysiology assay, PatchXpress platform. It is filed as cell-based. The settings on record: estimated IC50 from single point electrophysiology data, HEK cells stably expressing hSCN9A, held at V1/2 of inactivation, read-out: Nav1.7 EIC50. As to the method:
The ability of the compounds of formula (I) to block the Nav1.7 (or SCN9A) channel were measured using the assay described below.
Human Embryonic Kidney (HEK) cells were transfected with an hSCN9A construct using lipofectamine reagent (Invitrogen), using standard techniques. Cells stably expressing the hSCN9A constructs were identified by their resistance to G-418 (400 μg/ml). Clones were screened for expression using the whole-cell voltage-clamp technique.
HEK cells stably transfected with hSCN9A were maintained in DMEM medium supplemented with 10% heat-inactivated fetal bovine serum and 400 μg/ml G-418 in an incubator at 37° C. with a humidified atmosphere of 10% CO2. For HTS, cells were harvested from flasks by trypsinization and replated in an appropriate multi-well plate (typically 96 or 384 wells/plate) such that confluence would be achieved within 24 hours of plating. For electrophysiological studies, cells were removed from the culture flask by brief trypsinization and re-plated at low density onto glass cover slips. Cells were typically used for electrophysiological experiments within 24 to 72 hours after plating.
Cover slips containing HEK cells expressing hSCN9A were placed in a bath on the stage of an inverted microscope and perfused (approximately 1 ml/minutes) with extracellular solution of the following composition: 138 mM NaCl, 2 mM CaCl2, 5.4 mM KCl, 1 mM MgCl2, 10 mM glucose, and 10 mM HEPES, pH 7.4, with NaOH. […] The osmolarity of the extracellular and intracellular solutions was 300 mOsm/kg and 295 mOsm/kg, respectively. All recordings were made at room temperature (22-24° C.) using AXOPATCH 200B amplifiers and PCLAMP software (Axon Instruments, Burlingame, Calif.).
hSCN9A currents in HEK cells were measured using the whole-cell configuration of the patch-clamp technique (Hamill et al., 1981). Uncompensated series resistance was typically 2 to 5 mega ohms and >85% series resistance compensation was routinely achieved. […] Current records were acquired at 20 to 50 KHz and filtered at 5 to 10 KHz.
HEK cells stably transfected with hSCN9A were viewed under Hoffman contrast optics and placed in front of an array of flow pipes emitting either control or compound-containing extracellular solutions. All compounds were dissolved in dimethyl sulfoxide to make 10 mM stock solutions, which were then diluted into extracellular solution to attain the final concentrations desired. […] The voltage-dependence of inactivation was determined by applying a series of depolarizing prepulses (8 sec long in 10 mV increments) from a negative holding potential. The voltage was then immediately stepped to 0 mV to assess the magnitude of the sodium current. Currents elicited at 0 mV were plotted as a function of prepulse potential to allow estimation of the voltage at which 50% of the channels were inactivated (midpoint of inactivation or V1/2). Compounds were tested for their ability to inhibit hSCN9A sodium channels by activating the channel with a 20 msec voltage step to 0 mV following an 8 second conditioning prepulse to the empirically determined V1/2. Compound effect (% inhibition) was determined by difference in current amplitude before and after application of test compounds. […] Inhibition values <20% and >80% were excluded from the calculation.
Electrophysiological assays were conducted with PatchXpress 7000 hardware and associated software (Molecular Devices Corp). All assay buffers and solutions were identical to those used in conventional whole-cell voltage clamp experiments described above. hSCN9A cells were grown as above to 50%-80% confluency and harvested by trypsinization. Trypsinized cells were washed and resuspended in extracellular buffer at a concentration of 1×10^6 cells/ml. The onboard liquid handling facility of the PatchXpress was used for dispensing cells and application of test compounds.
Regarding `CS(=O)(=O)NC(=O)c1cc(Cl)c(COc2ccc(Cl)c(Cl)c2)cc1F` [Example 1, 5-Chloro-4-[(3,4-dichlorophenoxy)methyl]-2-fluoro-N-(methylsulfonyl)benzamide], the pIC50 was 8.02.

Consider `CS(=O)(=O)NC(=O)c1cc(F)c(COc2ccc(C(F)(F)F)c(Cl)c2)cc1F` [Example 2, 4-{[3-Chloro-4-(trifluoromethyl)phenoxy]methyl}-2,5-difluoro-N-(methylsulfonyl)benzamide], for which the pIC50 is 7.19.

For the compound `CS(=O)(=O)NC(=O)c1ccc(OCc2ccc(Cl)c(Cl)c2)cc1` [Example 3], the pIC50 is 6.54.

Take `Cn1nc(C(F)(F)F)cc1-c1ccc(OCc2ccc(C(=O)NS(C)(=O)=O)cc2)cc1` [Example 4, N-(Methylsulfonyl)-4-({4-[1-methyl-3-(trifluoromethyl)-1H-pyrazol-5-yl]phenoxy}methyl)benzamide diethylamine salt]: the pIC50 was 5.92.

Turning to `CS(=O)(=O)NC(=O)c1ccc(OCc2cccc3ccccc23)c(C#N)c1` [Example 5, 3-Cyano-N-(methylsulfonyl)-4-(1-naphthylmethoxy)benzamide], the pIC50 is 5.77.

For `CS(=O)(=O)NC(=O)c1ccc(OCc2ccccc2OC(F)(F)F)c(Cl)c1` [Example 6, 3-Chloro-N-(methylsulfonyl)-4-{[2-(trifluoromethoxy)benzyl]oxy}benzamide], the pIC50 is 5.89.

Consider `COc1cccc(OCc2ccc(C(=O)NS(C)(=O)=O)cc2)c1` [Example 8, 4-[(3-Methoxyphenoxy)methyl]-Nethylsulfonyl)benzamide diethylamine salt], for which the pIC50 is 5.16.

Take `CS(=O)(=O)NC(=O)c1cc(F)c(OCc2ccc(Cl)c(Cl)c2)cc1F` [Example 9, 4-[(3,4-Dichlorobenzyl)oxy]-2,5-difluoro-N-(methylsulfonyl)benzamide]: the pIC50 is 6.17.

As to `CS(=O)(=O)NC(=O)c1cc(F)c(OCc2ccc(C(F)(F)F)c(Cl)c2)cc1F` [Example 10, 4-(3-Chloro-4-(trifluoromethyl)benzyloxy)-2,5-difluoro-N-(methylsulfonyl)benzamide], the pIC50 is 5.82.

`COc1cc(OCc2ccc(Cl)c(Cl)c2)ccc1C(=O)NS(C)(=O)=O` [Example 12, 4-[(3,4-Dichlorobenzyl)oxy]-2-methoxy-N-(methylsulfonyl)benzamide]: the pIC50 was 4.92.

Turning to `COc1ccccc1OCc1cc(F)c(C(=O)NS(C)(=O)=O)cc1F` [Example 14, 2,5-Difluoro-4-((2-methoxyphenoxy)methyl)-N-(methylsulfonyl)benzamide], the pIC50 was 5.09.

On to `COc1cc(Cl)ccc1OCc1cc(F)c(C(=O)NS(C)(=O)=O)cc1F` [Example 15, 4-((4-Chloro-2-methoxyphenoxy)methyl)-2,5-difluoro-N-(methylsulfonyl)benzamide Diethylamine salt], for which the pIC50 was 5.77.

For `CS(=O)(=O)NC(=O)c1ccc(COc2cccc(Cl)c2)cc1` [Example 16, 4-((3-Chlorophenoxy)methyl)-N-(methylsulfonyl)benzamide Diethylamine salt], the pIC50 is 6.12.

For `CS(=O)(=O)NC(=O)c1ccc(COc2ccc(C#N)cc2)cc1` [Example 17, 4-((4-Cyanophenoxy)methyl)-N-(methylsulfonyl)benzamide], the pIC50 was 5.08.

For `CS(=O)(=O)NC(=O)c1ccc(COc2ccc(Cl)cc2)cc1` [Example 18, 4-((4-Chlorophenoxy)methyl)-N-(methylsulfonyl)benzamide Diethylamine salt], the pIC50 is 6.03.

As for `COc1cc(C(=O)NS(C)(=O)=O)ccc1COc1ccc(Cl)c(Cl)c1` [Example 19, 4-((3,4-Dichlorophenoxy)methyl)-3-methoxy-N-(methylsulfonyl)benzamide], the pIC50 is 7.24.

Regarding `CS(=O)(=O)NC(=O)c1ccc(OCc2ccccc2)cc1` [Example 20, 4-(Benzyloxy)-N-(methylsulfonyl)benzamide Diethylamine salt], the pIC50 is 5.62.

As for `CS(=O)(=O)NC(=O)c1ccc(OCc2cccc(Br)c2)cc1` [Example 21, 4-(3-Bromobenzyloxy)-N-(methylsulfonyl)benzamide], the pIC50 is 6.15.

As for `Cc1nccn1-c1ccc(COc2ccc(C(=O)NS(C)(=O)=O)cc2)cc1` [Example 22, 4-(4-(2-methyl-1H-imidazol-1-yl)benzyloxy)-N-(methylsulfonyl)benzamide], the pIC50 is under 5.52.

For `CCC(C)S(=O)(=O)NC(=O)c1cc(F)c(COc2ccc(Cl)c(Cl)c2)cc1F` (centres unmarked) [Example 23, N-(sec-Butylsulfonyl)-4-((3,4-dichlorophenoxy)methyl)-2,5-difluorobenzamide], the pIC50 was 6.42.

Consider `CS(=O)(=O)NC(=O)c1ccc(COc2ccc(Cl)cc2Cl)cc1` [Example 24, 4-((2,4-Dichlorophenoxy)methyl)-N-(methylsulfonyl)benzamide Diethylamine salt], for which the pIC50 is 6.11.

Take `CCc1ccc(OCc2ccc(C(=O)NS(C)(=O)=O)cc2)cc1` [Example 25, 4-((4-Ethylphenoxy)methyl)-N-(methylsulfonyl)benzamide Diethylamine salt]: the pIC50 was 6.14.

As to `CS(=O)(=O)NC(=O)c1ccc(COc2ccc(C(F)(F)F)cc2-c2ccnnc2)cc1` [Example 26, N-(methylsulfonyl)-4-{[2-pyridazin-4-yl-4-(trifluoromethyl)phenoxy]methyl}benzamide], the pIC50 was 7.11.

Turning to `CS(=O)(=O)NC(=O)c1ccc(COc2ccc(Cl)c(C(F)(F)F)c2)cc1` [Example 27, 4-{[4-Chloro-3-(trifluoromethyl)phenoxy]methyl}-N-(methylsulfonyl)benzamide], the pIC50 was 6.42.

As to `CS(=O)(=O)NC(=O)c1ccc(COc2ccc(Cl)c(Cl)c2)cc1` [Example 28, 4-[(3,4-Dichlorophenoxy)methyl]-N-(methylsulfonyl)benzamide], the pIC50 was 7.24.

Turning to `CS(=O)(=O)NC(=O)c1ccc(COc2ccc(Cl)c(Cl)c2)c(Cl)c1` [Example 29, 3-Chloro-4-((3,4-dichlorophenoxy)methyl)-N-(methylsulfonyl)benzamide Diethylamine salt], the pIC50 is 7.07.

As for `COc1cc(COc2ccc(Cl)c(Cl)c2)ccc1C(=O)NS(C)(=O)=O` [Example 30, 4-[(3,4-Dichlorophenoxy)methyl]-2-methoxy-N-(methylsulfonyl)benzamide], the pIC50 is 5.72.

With `COc1ccccc1OCc1ccc(C(=O)NS(C)(=O)=O)cc1` [Example 34, 4-[(2-Methoxyphenoxy)methyl]-N-(methylsulfonyl)benzamide], the pIC50 is 5.07.

Turning to `CS(=O)(=O)NC(=O)c1ccc(COc2cccc(C3CCNCC3)c2)cc1` [Example 35, N-(Methylsulfonyl)-4-[(3-piperidin-4-ylphenoxy)methyl]benzamide], the pIC50 was under 5.52.

Regarding `CS(=O)(=O)NC(=O)c1ccc(COc2ccc(C3CCNCC3)cc2)cc1` [Example 36, N-(methylsulfonyl)-4-[(4-piperidin-4-ylphenoxy)methyl]benzamide diethylamine salt], the pIC50 was under 5.52.

In the case of `Cn1nccc1-c1ccc(OCc2ccc(C(=O)NS(C)(=O)=O)cc2)cc1` [Example 37, 4-{[4-(1-Methyl-1H-pyrazol-5-yl)phenoxy]methyl}-N-(methylsulfonyl)benzamide diethylamine salt], the pIC50 was under 5.52.

Take `Cn1nccc1-c1cc(Cl)ccc1OCc1ccc(C(=O)NS(C)(=O)=O)cc1` [Example 38, 4-{[4-Chloro-2-(1-methyl-1H-pyrazol-5-yl)phenoxy]methyl}-N-(methylsulfonyl)benzamide diethylamine salt]: the pIC50 was under 5.52.

(Values after patent publication US9096500B2, “Acyl sulfonamide compounds” (Pfizer Limited, priority 2010, dated 2015).)
